{"source": "patent US20040200144A1", "about": "“Plant growth regulator and a method of producing the regulator” (Dainichiseika Color & Chemicals Mfg. Co., Ltd., priority 2003, published 2004)", "type_in_all_cases": "in vivo", "key": {"[1]": {"test_system": "newmelon young plants", "test": "Dwarfing test of newmelon young plant", "conditions": "for Plant Height / Dwarfing Rate: 5 ml per cell on 7th day, measured 27th day; for Dwarfing Rate: vs comparative group", "protocol": "(§1) 50 g of sodium tripolyphosphate was dissolved in 400 ml of distilled water at 80° C., 17.5 g of cinnamic acid was added to the sodium tripolyphosphate solution and dissolved by stirring, the resultant solution was diluted with distilled water until the total volume of solution was 500 ml, and thus 3.5% cinnamic acid aqueous solution (pH 6.5) was prepared. The aqueous solution was further diluted with distilled water 70 times or 17.5 times, and 0.05% cinnamic acid aqueous solution and 0.2% cinnamic acid aqueous solution were prepared, respectively.\n(§2) Nursery soil for house use was filled into paper joint pots (each with 24 cells: 34×43×50 mm/cell), water was sufficiently given to the soil, and seeds of carrots were sowed. After seeding, the pot was placed in the same greenhouse as described above to sprout. Subsequently, on the 5th day, the cinnamic aqueous acid solutions were added to the nursery soil in the joint pots. One of the joint pots (24 cells) was prepared as a 0.05% cinnamic acid aqueous solution addition group, and 5 ml of the 0.05% cinnamic acid aqueous solution was added to the nursery soil of each cell. Another one of the join pots was prepared as a 0.2% cinnamic acid aqueous solution addition group, and 5 ml of the 0.2% cinnamic acid aqueous solution was added to the nursery soil of each cell. The other one of the joint pots was prepared as a comparative group in which 5 ml of water is added to each cell, instead of the cinnamic acid aqueous solution. Subsequently, the cultivation of carrot young plants in each group was continued under general conditions. On the 27th day, the heights of young plants in each group were measured, the dwarfing rate (%) was calculated, and the dwarfing effect of cinnamic acid aqueous solution on carrot young plants was examined. […].\n(§3) In the same way as in Example 12 except that seeds of tomato were sowed, and that the cinnamic acid solutions were added to the nursery soil of the joint pot on the 7th day, the dwarfing effect of cinnamic acid aqueous solution on tomato young plants was examined. […].\n(§4) In the same way as in Example 17 except that seeds of watermelon were sowed, and that plant heights were measured on the 27th day, the dwarfing effect of cinnamic acid aqueous solution on watermelon young plants was examined. […].\nIn the same way as in Example 21 except that seeds of newmelon were sowed, the dwarfing effect of cinnamic acid aqueous solution on newmelon young plants was examined. […]"}, "[2]": {"test_system": "carrot young plants", "test": "Dwarfing test of carrot young plant", "conditions": "for Plant Height / Dwarfing Rate: 5 ml per cell on 5th day, measured 27th day; for Dwarfing Rate: vs comparative group", "protocol": "Dwarfing rate (%)=[(the plant height of the comparative group)−(the plant height of an addition group)/the plant height of the comparative group]×100\nas §1\nNursery soil for house use was filled into paper joint pots (each with 24 cells: 34×43×50 mm/cell), water was sufficiently given to the soil, and seeds of carrots were sowed. After seeding, the pot was placed in the same greenhouse as described above to sprout. Subsequently, on the 5th day, the cinnamic aqueous acid solutions were added to the nursery soil in the joint pots. One of the joint pots (24 cells) was prepared as a 0.05% cinnamic acid aqueous solution addition group, and 5 ml of the 0.05% cinnamic acid aqueous solution was added to the nursery soil of each cell. Another one of the join pots was prepared as a 0.2% cinnamic acid aqueous solution addition group, and 5 ml of the 0.2% cinnamic acid aqueous solution was added to the nursery soil of each cell. The other one of the joint pots was prepared as a comparative group in which 5 ml of water is added to each cell, instead of the cinnamic acid aqueous solution. Subsequently, the cultivation of carrot young plants in each group was continued under general conditions. On the 27th day, the heights of young plants in each group were measured, the dwarfing rate (%) was calculated, and the dwarfing effect of cinnamic acid aqueous solution on carrot young plants was examined. […]"}, "[3]": {"test_system": "squash young plants", "test": "Dwarfing test of squash young plant", "conditions": "for Plant Height / Dwarfing Rate: 5 ml per cell on 7th day, measured 20th day; for Dwarfing Rate: vs comparative group", "protocol": "After seeding, the pot was placed in the same greenhouse as described above to sprout. Subsequently, on the 5th day, the cinnamic aqueous acid solutions were added to the nursery soil in the joint pots. One of the joint pots (24 cells) was prepared as a 0.05% cinnamic acid aqueous solution addition group, and 5 ml of the 0.05% cinnamic acid aqueous solution was added to the nursery soil of each cell. Another one of the join pots was prepared as a 0.2% cinnamic acid aqueous solution addition group, and 5 ml of the 0.2% cinnamic acid aqueous solution was added to the nursery soil of each cell. […] Subsequently, the cultivation of carrot young plants in each group was continued under general conditions. On the 27th day, the heights of young plants in each group were measured, the dwarfing rate (%) was calculated, and the dwarfing effect of cinnamic acid aqueous solution on carrot young plants was examined. From the results in Table 5, it became evident that the 0.05% and 0.2% cinnamic acid aqueous solutions are effective in dwarfing carrot young plants. In the same way as in Example 5 except that seeds of cauliflower were sowed, the cinnamic acid solutions were added to the nursery soil in the joint pot on the 4th day, and that heights of young plants in each group were measured on the 20th day, the dwarfing effect of cinnamic acid aqueous solution on cauliflower young plants was examined. From the results in Table 12, it became evident that the cinnamic acid aqueous solutions are effective in dwarfing cauliflower young plants. In the same way as in Example 12 except that seeds of tomato were sowed, and that the cinnamic acid solutions were added to the nursery soil of the joint pot on the 7th day, the dwarfing effect of cinnamic acid aqueous solution on tomato young plants was examined. From the results in Table 17, it became evident that the cinnamic acid aqueous solutions are effective in dwarfing tomato young plants. In the same way as in Example 17 except that seeds of squash were sowed, the dwarfing effect of cinnamic acid aqueous solution on squash young plants was examined. From the results in Table 20, it became evident that the cinnamic acid aqueous solutions are effective in dwarfing squash young plants."}, "[4]": {"test_system": "radish young plants", "test": "Dwarfing test of radish young plant", "conditions": "for Plant Height / Dwarfing Rate: 5 ml per cell on 4th day, measured 20th day; for Dwarfing Rate: vs comparative group", "protocol": "as §1, §2\nIn the same way as in Example 12 except that seeds of radish were sowed, the dwarfing effect of cinnamic acid aqueous solution on radish young plants was examined. […]"}, "[5]": {"test_system": "Cucumis melo var. makuwa young plants", "test": "Dwarfing test of Cucumis melo var. makuwa young plant", "conditions": "for Plant Height / Dwarfing Rate: 5 ml per cell on 7th day, measured 27th day; for Dwarfing Rate: vs comparative group", "protocol": "as §1, §2, §3, §4\nIn the same way as in Example 21 except that seeds of Cucumis melo var. makuwa were sowed, the dwarfing effect of cinnamic acid aqueous solution on Cucumis melo var. makuwa young plants was examined. […]"}}}
{"smiles": "O=C(O)C=Cc1ccccc1", "note": "[cinnamic acid]", "values": [{"measurement": "Plant Height", "setting": "[1]; 0.05% aqueous solution", "result": 7.3, "unit": "cm"}, {"measurement": "Dwarfing Rate", "setting": "[1]; 0.05% aqueous solution", "result": 6.4, "unit": "%"}, {"measurement": "Plant Height", "setting": "[1]; 0.2% aqueous solution", "result": 4.9, "unit": "cm"}, {"measurement": "Dwarfing Rate", "setting": "[1]; 0.2% aqueous solution", "result": 37.2, "unit": "%"}, {"measurement": "dwarfing effect", "setting": "[1]; newmelon young plants, 0.05% and 0.2% aqueous solutions", "result": "effective"}, {"measurement": "Plant Height", "setting": "[2]; 0.05% aqueous solution", "result": 7.9, "unit": "cm"}, {"measurement": "Dwarfing Rate", "setting": "[2]; 0.05% aqueous solution", "result": 7.1, "unit": "%"}, {"measurement": "Plant Height", "setting": "[2]; 0.2% aqueous solution", "result": 6.9, "unit": "cm"}, {"measurement": "Dwarfing Rate", "setting": "[2]; 0.2% aqueous solution", "result": 18.8, "unit": "%"}, {"measurement": "dwarfing effect", "setting": "[2]; carrot young plants, 0.05% and 0.2% aqueous solutions", "result": "effective"}, {"measurement": "Plant Height", "setting": "[3]; 0.05% aqueous solution", "result": 6.3, "unit": "cm"}, {"measurement": "Dwarfing Rate", "setting": "[3]; 0.05% aqueous solution", "result": 27.6, "unit": "%"}, {"measurement": "Plant Height", "setting": "[3]; 0.2% aqueous solution", "result": 4.3, "unit": "cm"}, {"measurement": "Dwarfing Rate", "setting": "[3]; 0.2% aqueous solution", "result": 50.6, "unit": "%"}, {"measurement": "dwarfing effect", "setting": "[3]; squash young plants, 0.05% and 0.2% aqueous solutions", "result": "effective"}, {"measurement": "Plant Height", "setting": "[4]; 0.05% aqueous solution", "result": 8.1, "unit": "cm"}, {"measurement": "Dwarfing Rate", "setting": "[4]; 0.05% aqueous solution", "result": 11.0, "unit": "%"}, {"measurement": "Plant Height", "setting": "[4]; 0.2% aqueous solution", "result": 7.1, "unit": "cm"}, {"measurement": "Dwarfing Rate", "setting": "[4]; 0.2% aqueous solution", "result": 22.0, "unit": "%"}, {"measurement": "dwarfing effect", "setting": "[4]; radish young plants, 0.05% and 0.2% aqueous solutions", "result": "effective"}, {"measurement": "Plant Height", "setting": "[5]; 0.05% aqueous solution", "result": 6.1, "unit": "cm"}, {"measurement": "Dwarfing Rate", "setting": "[5]; 0.05% aqueous solution", "result": 6.2, "unit": "%"}, {"measurement": "Plant Height", "setting": "[5]; 0.2% aqueous solution", "result": 4.7, "unit": "cm"}, {"measurement": "Dwarfing Rate", "setting": "[5]; 0.2% aqueous solution", "result": 27.7, "unit": "%"}, {"measurement": "dwarfing effect", "setting": "[5]; Cucumis melo var. makuwa young plants, 0.05% and 0.2% aqueous solutions", "result": "effective"}]}
